According to paper PMC9851200, “Multiparameter phenotypic screening for endogenous TFEB and TFE3 translocation identifies novel chemical series modulating lysosome function” (Autophagy, 2022):
Like-named read-outs stand apart in the source and are kept apart here.

Columns and labels:
endogenous TFE3 = experiment: TFE3 nuclear translocation, immunocytochemistry high-content imaging; type: cell-based
endogenous TFEB = experiment: TFEB nuclear translocation, immunocytochemistry high-content imaging; type: cell-based
SH-SY5Y cells [1] = experiment: Nuclear count from microscopy images (cellular growth and toxicity); also: reference of the scale not given here
SH-SY5Y cells [2] = experiment: AK (adenylate kinase) release ToxiLight cytotoxicity assay; also: reference of the scale not given here
SH-SY5Y cells [3] = system: SH-SY5Y cells; also: reference of the scale not given here
[4] = PKIS2 primary screening, DQ Red BSA intensity
[5] = PKIS2 primary screening, DQ Red BSA spot count

In the case of O=C(Nc1n[nH]c2cc(-c3ccco3)ccc12)C1CC1 [SB-737447], the TFE3 % (endogenous TFE3; PKIS2 primary screening) is reported as 9.47%, the TFEB % (endogenous TFEB; PKIS2 primary screening) is reported as 10.40% and the “Nuclear Count” value (SH-SY5Y cells [1]; PKIS2 primary screening) is reported as 114.46. The AK (SH-SY5Y cells [2]; PKIS2 primary screening) was 119.40, the “DQ Intensity” value (SH-SY5Y cells [3]; [4]) was 79.02 and the “DQ Spot” value (SH-SY5Y cells [3]; [5]) was 97.06.

With O=C(Nc1n[nH]c2nc(-c3ccco3)c(Br)cc12)c1ccc(CN2CCCC2)cc1 [SB-742352] the TFE3 % (endogenous TFE3; PKIS2 primary screening) was 19.33%, the TFEB % (endogenous TFEB; PKIS2 primary screening) was 7.90% and the “Nuclear Count” value (SH-SY5Y cells [1]; PKIS2 primary screening) was 100.71. The AK (SH-SY5Y cells [2]; PKIS2 primary screening) was 95.96, the “DQ Intensity” value (SH-SY5Y cells [3]; [4]) was 92.66 and the “DQ Spot” value (SH-SY5Y cells [3]; [5]) was 91.08.

For Cl.NS(=O)(=O)c1cccc(Nc2cc(-c3ccc(F)cc3)n[nH]2)c1 [UNC10112764A], the TFE3 % (endogenous TFE3; PKIS2 primary screening) was 14.81%, the TFEB % (endogenous TFEB; PKIS2 primary screening) was 1.30% and the “Nuclear Count” value (SH-SY5Y cells [1]; PKIS2 primary screening) was 80.49. For the same molecule, the AK (SH-SY5Y cells [2]; PKIS2 primary screening) was 125.30, the “DQ Intensity” value (SH-SY5Y cells [3]; [4]) was 118.54 and the “DQ Spot” value (SH-SY5Y cells [3]; [5]) was 103.52.

With CCn1c(-c2nonc2N)nc2ccccc21 [UNC10112830A] the TFE3 % (endogenous TFE3; PKIS2 primary screening) was 10.17%, the TFEB % (endogenous TFEB; PKIS2 primary screening) was 9.19% and the “Nuclear Count” value (SH-SY5Y cells [1]; PKIS2 primary screening) was 114.37. For the same molecule, the AK (SH-SY5Y cells [2]; PKIS2 primary screening) was 85.29, the “DQ Intensity” value (SH-SY5Y cells [3]; PKIS2 primary screening) was 143.39 and the “DQ Spot” value (SH-SY5Y cells [3]; PKIS2 primary screening) was 111.62.

Cc1ccc(NC(=O)c2ccc(Cl)cc2)cc1-c1ccc(C(=O)Nc2ccncc2)cc1 [UNC10224985A] was tested, and the TFE3 % (endogenous TFE3; PKIS2 primary screening) was 13.44%, the TFEB % (endogenous TFEB; PKIS2 primary screening) was 7.14% and the “Nuclear Count” value (SH-SY5Y cells [1]; PKIS2 primary screening) was 119.79. The AK (SH-SY5Y cells [2]; PKIS2 primary screening) was 72.98, the “DQ Intensity” value (SH-SY5Y cells [3]; PKIS2 primary screening) was 77.83 and the “DQ Spot” value (SH-SY5Y cells [3]; PKIS2 primary screening) was 81.57.

For O=C(NCC1CC1)c1ccc(-c2cc(C(=O)NC3CC3)ccc2F)cc1 [UNC10224986A], the TFE3 % (endogenous TFE3; PKIS2 primary screening) was 10.56%, the TFEB % (endogenous TFEB; PKIS2 primary screening) was 5.16% and the “Nuclear Count” value (SH-SY5Y cells [1]; PKIS2 primary screening) was 97.72. The AK (SH-SY5Y cells [2]; PKIS2 primary screening) was 72.27, the “DQ Intensity” value (SH-SY5Y cells [3]; PKIS2 primary screening) was 92.71 and the “DQ Spot” value (SH-SY5Y cells [3]; PKIS2 primary screening) was 109.74.

COc1cccc(CC(=O)N2CCc3cc(-c4cn(C)c5ncnc(N)c45)ccc32)c1 [UNC10224987A] was tested, and the TFE3 % (endogenous TFE3; PKIS2 primary screening) was 10.50%, the TFEB % (endogenous TFEB; PKIS2 primary screening) was 11.97% and the “Nuclear Count” value (SH-SY5Y cells [1]; PKIS2 primary screening) was 115.64. For the same molecule, the AK (SH-SY5Y cells [2]; PKIS2 primary screening) was 97.56, the “DQ Intensity” value (SH-SY5Y cells [3]; PKIS2 primary screening) was 104.40 and the “DQ Spot” value (SH-SY5Y cells [3]; PKIS2 primary screening) was 98.28.

In the case of NS(=O)(=O)CCc1cccc(Nc2nccc(-c3c(-c4cccc(NC(=O)c5c(F)cccc5F)c4)nn4ccccc34)n2)c1 [UNC10224988A], the TFE3 % (endogenous TFE3; PKIS2 primary screening) is reported as 7.44%, the TFEB % (endogenous TFEB; PKIS2 primary screening) is reported as 3.80% and the “Nuclear Count” value (SH-SY5Y cells [1]; PKIS2 primary screening) is reported as 124.64. For the same molecule, the AK (SH-SY5Y cells [2]; PKIS2 primary screening) was 106.43, the “DQ Intensity” value (SH-SY5Y cells [3]; PKIS2 primary screening) was 109.41 and the “DQ Spot” value (SH-SY5Y cells [3]; PKIS2 primary screening) was 101.39.

In the case of Cl.O=S(=O)(c1cccc(F)c1)c1ccc(Nc2ncnc3cc(Br)sc23)cc1Cl [UNC10224990A], the TFE3 % (endogenous TFE3; PKIS2 primary screening) is reported as 13.25%, the TFEB % (endogenous TFEB; PKIS2 primary screening) is reported as 10.77% and the “Nuclear Count” value (SH-SY5Y cells [1]; PKIS2 primary screening) is reported as 81.79. The AK (SH-SY5Y cells [2]; PKIS2 primary screening) was 136.08, the “DQ Intensity” value (SH-SY5Y cells [3]; [4]) was 81.12 and the “DQ Spot” value (SH-SY5Y cells [3]; [5]) was 105.16.

In the case of CC(C)c1nc(-c2cccc(NS(=O)(=O)c3c(F)cccc3F)c2F)c(-c2ccnc(Nc3ccc(N4CCOCC4)nc3)n2)s1 [UNC10224991A], the TFE3 % (endogenous TFE3; PKIS2 primary screening) is reported as 13.92%, the TFEB % (endogenous TFEB; PKIS2 primary screening) is reported as 5.34% and the “Nuclear Count” value (SH-SY5Y cells [1]; PKIS2 primary screening) is reported as 54.49. The AK (SH-SY5Y cells [2]; PKIS2 primary screening) was 96.03, the “DQ Intensity” value (SH-SY5Y cells [3]; PKIS2 primary screening) was 137.04 and the “DQ Spot” value (SH-SY5Y cells [3]; PKIS2 primary screening) was 135.69.

In the case of Cc1ccc(NC(=O)Nc2ccccc2)cc1-c1ccc(C(=O)Nc2ccncc2)cc1 [UNC10224992A], the TFE3 % (endogenous TFE3; PKIS2 primary screening) is reported as 19.70%, the TFEB % (endogenous TFEB; PKIS2 primary screening) is reported as 8.91% and the “Nuclear Count” value (SH-SY5Y cells [1]; PKIS2 primary screening) is reported as 89.66. The AK (SH-SY5Y cells [2]; PKIS2 primary screening) was 119.72, the “DQ Intensity” value (SH-SY5Y cells [3]; PKIS2 primary screening) was 74.41 and the “DQ Spot” value (SH-SY5Y cells [3]; PKIS2 primary screening) was 94.75.

In the case of Nc1ncnc2occ(-c3ccc4c(c3)CCN4C(=O)Cc3cc(F)ccc3F)c12 [UNC10225000A], the TFE3 % (endogenous TFE3; PKIS2 primary screening) is reported as 4.51%, the TFEB % (endogenous TFEB; PKIS2 primary screening) is reported as 2.84% and the “Nuclear Count” value (SH-SY5Y cells [1]; PKIS2 primary screening) is reported as 124.09. For the same molecule, the AK (SH-SY5Y cells [2]; PKIS2 primary screening) was 111.48, the “DQ Intensity” value (SH-SY5Y cells [3]; [4]) was 134.29 and the “DQ Spot” value (SH-SY5Y cells [3]; [5]) was 108.59.

For Cc1c(Cn2c(C)nn3c(=O)cc(N4CCOC(C)C4)nc23)cccc1C(F)(F)F (stereo not drawn) [UNC10225005A], the TFE3 % (endogenous TFE3; PKIS2 primary screen) was 10.85%, the TFEB % (endogenous TFEB; PKIS2 primary screen) was 4.71% and the “Nuclear Count” value (SH-SY5Y cells [1]; PKIS2 primary screen) was 125.80. For the same molecule, the AK (SH-SY5Y cells [2]; PKIS2 primary screen) was 90.28, the “DQ Intensity” value (SH-SY5Y cells [3]; PKIS2 primary screen, DQ Red BSA intensity) was 85.13 and the “DQ Spot” value (SH-SY5Y cells [3]; PKIS2 primary screen, DQ Red BSA spot count) was 83.90.
